The record followed here is US7659278B2, “Use of low molecular weight compounds for preparing a medicament useful in treating mutant p53 mediated diseases” (Aprea AB, priority 2002, dated 2010).

Assay [1] concerns H1299-His-175 lung adenocarcinoma cells. The assay can be described thus: WST-1 growth inhibition by structural analogues, H1299-His-175 cells with or without doxycycline. Format: cell-based, human. The following applies: for pIC50: Homo sapiens, 48 h, WST-1; for R H1299-His175: ratio IC50p53null/IC50mtp53. How it is done: (§1) After 12h cells were treated with analogues and incubated with compounds for 48 h. Then WST-1 cell proliferating reagent was added to each well and cell survival was estimated by reading absorbance at 450 nm by ELISA reader. The effect of structural analogues on cell growth was tested using different concentrations of the compounds, ranging from 0.1; 1; 5; 10 and 25 μM. After that curves of growth inhibition were generated based on a rational function Y=(b+cx)/1+ax by using Microcal Origin software. The coefficients (a,b,c) of the equation were determined by employing Levenberg-Marquardt algorithm.
(§2) The specificity of each compound was determined by calculation of ratio IC50p53null/IC50mtp53. Ratios equal to 1 or less are indicating non-specific activity.

In assay [2] the test system is Saos-2-His-273 osteosarcoma cells. The assay can be described thus: WST-1 growth inhibition by structural analogues, Saos-2-His-273 cells with or without doxycycline. Format: cell-based, human. Conditions: for pIC50: Homo sapiens, 48 h, WST-1; for R Saos-2His273: ratio IC50p53null/IC50mtp53. As for the experimental part: as §1, §2
For orientation: Formazan colour is commonly taken as a measure of viable cells.

Where [3] appears, read: Dox+ (p53 null), read-out: IC50 H1299-His175 Dox+.
Setting [4] is: Dox− (mutant p53 expressed), read-out: IC50 H1299-His175 Dox−.
Where [5] appears, read: Dox+ (p53 null), read-out: IC50 Saos-2His273 Dox+.
The mark [6] stands for this setting: Dox− (mutant p53 expressed), read-out: IC50 Saos-2His273 Dox−.

pIC50: −log10 of the molar value. Read-outs that look alike come from different tables or passages of the source.

Regarding `Cn1c(=O)c2c([nH]c(=O)n2CC2C(=O)C3CCN2CC3)n(C)c1=O` (stereo not drawn) [2-(7-methylene-1,3-dimethyluric acid)-3-quinuclidinone], the pIC50 – broadly, the IC50 on a negative log10 scale, so that one unit is a factor of ten – in assay [1] (setting [3]) was 5.28; in assay [1] (setting [4]), 5.39; in assay [2] (setting [5]), 5.26; in assay [2] (setting [6]), 5.56. Moreover, in assay [1], the “R H1299-His175” value is recorded as 1.26. The “R Saos-2His273” value in assay [2] is reported as 2.01.
`O=C1C=CC(=O)N1` [maleimide]: the pIC50 in assay [1] (setting [3]) was 5.28; in assay [1] (setting [4]), 5.52; in assay [2] (setting [5]), 5.12; in assay [2] (setting [6]), 5.47. For the same molecule, the “R H1299-His175” value in assay [1] was 1.73. Moreover, in assay [2], the “R Saos-2His273” value is given as 2.25.
With `COc1ncnc2c1ncn2CC1C(=O)C2CCN1CC2` (stereo not drawn) [2-(6-methoxypurine-9-methylene)-3-quinuclidinone], the pIC50 in assay [1] (setting [3]) is 4.63; in assay [1] (setting [4]) it was 4.81; in assay [2] (setting [5]) it was 4.58; in assay [2] (setting [6]), 4.86. Further, in assay [1], the “R H1299-His175” value amounted to 1.5. The “R Saos-2His273” value in assay [2] is given as 1.9.
Regarding `Nc1ncnc2nnn(CC3C(=O)C4CCN3CC4)c12` (stereo not drawn) [2-(8-azaadenine-7-methylene)-3-quinuclidinone], the pIC50 was 5.38 in assay [1] (setting [3]), 5.48 in assay [1] (setting [4]), 5.14 in assay [2] (setting [5]) and 5.55 in assay [2] (setting [6]). Besides, the “R H1299-His175” value in assay [1] worked out at 1.27. The “R Saos-2His273” value in assay [2] turned out to be 2.61.
In the case of `Cc1cc2ncn(CC3C(=O)C4CCN3CC4)c2cc1C` (stereo not drawn) [2-(5,6-dimethyl-benzimidazole-1-methylene)-3-quinuclidinone], the pIC50 in assay [1] (setting [3]) was 5.15; in assay [1] (setting [4]), 5.32; in assay [2] (setting [5]) it was 5.03; in assay [2] (setting [6]) it was 5.40. Also, the “R H1299-His175” value in assay [1] turned out to be 1.51. For the same molecule, the “R Saos-2His273” value in assay [2] came to 2.31.
Take `C=Cc1nc2ccccc2c(=O)[nH]1` [2-ethylene-4(3H)-quinazolinone]: the pIC50 was 5.41 in assay [1] (setting [3]), 5.85 in assay [1] (setting [4]), 5.30 in assay [2] (setting [5]) and 5.40 in assay [2] (setting [6]). For the same molecule, the “R H1299-His175” value in assay [1] was found to be 2.8. Further, in assay [2], the “R Saos-2His273” value is 1.27.
As to `CN1C(=O)C=CC1=O` [N-methylmaleimide], the pIC50 in assay [1] (setting [3]) was 5.27; in assay [1] (setting [4]) it was 5.54; in assay [2] (setting [5]) it was 5.19; in assay [2] (setting [6]), 5.39. In assay [1], the “R H1299-His175” value came out at 1.86. In assay [2], the “R Saos-2His273” value came out at 1.6.
`O=C1C2CCN(CC2)C1CN1C=NC2C(Cl)=NC(Cl)=NC21` (stereo not drawn) [2-(2,6-dichloro-9-methylenepurine)-3-quinuclidinone]: the pIC50 is 5.31 in assay [1] (setting [3]), 5.49 in assay [1] (setting [4]), 5.21 in assay [2] (setting [5]) and 5.60 in assay [2] (setting [6]). The “R H1299-His175” value in assay [1] worked out at 1.53. For the same molecule, the “R Saos-2His273” value in assay [2] came out at 2.44.
